Usually Km stands for the substrate concentration at which the rate is half of its maximum.

Format in all cases: ADME
One series relates to cytochrome P450. The experiment in a line: Activity of cytochrome P450 in human liver microsomes by LC-MS analysis. (Liver microsomes are vesicles of endoplasmic reticulum, rich in cytochrome P450 enzymes.)
Series [1] can be described thus: Activity of cytochrome P450 in human liver microsomes assessed as 7-hydroxy-N-desalkylquetiapine formation measured as substrate inhibition constant by LC-MS analysis.
Series [2] in a line: Activity of cytochrome P450 in human liver microsomes assessed as metabolite M3 formation by LC-MS analysis.
Series [3] deals with T1, Cytochrome P450 2D6 (Homo sapiens, UniProt P10635). The series is described as follows: Activity of human CYP2D6 expressed in supersomes co-expressing cytochrome P450 reductase assessed as metabolite M3 formation after 60 mins by LC-MS analysis. The settings on record: recombinant enzyme, 1 h.
Series [4] has as its target T2, Cytochrome P450 3A4 (Homo sapiens, UniProt P08684). The experiment in a line: Activity of human CYP3A4 expressed in supersomes co-expressing cytochrome P450 reductase assessed as metabolite M3 formation after 60 mins by LC-MS analysis. As to conditions: recombinant enzyme, 1 h.
Series [5] has as its target T1, Cytochrome P450 2D6. The experiment in a line: Activity of human CYP2D6 expressed in supersomes co-expressing cytochrome P450 reductase assessed as intrinsic clearance per pmol protein by LC-MS analysis. As to conditions: recombinant enzyme.
Another series addresses CYP3A4 (Homo sapiens, UniProt P08684). The series is described as follows: Activity of human CYP3A4 expressed in xenosomes assessed as substrate depletion after 60 mins by LC-MS analysis. The settings on record: recombinant CYP3A4 expressed in xenosomes, read-out: Drug metabolism.
For a further series, the target named is CYP2D6 (Homo sapiens, UniProt P10635). The experiment in a line: Activity of human CYP2D6 expressed in supersomes co-expressing cytochrome P450 reductase assessed as substrate depletion after 60 mins by LC-MS analysis. As to conditions: read-out: Drug metabolism.
The subject of series [6] is Liver microsome. The series is described as follows: Drug metabolism in human liver microsomes assessed as 7-hydroxy-N-desalkylquetiapine formation at 3 uM after 30 mins by mass spectroscopy. The settings on record: 0.5 h.
Series [7] concerns the target T2, Cytochrome P450 3A4. The experiment in a line: Activity of human CYP3A4 expressed in supersomes co-expressing cytochrome P450 reductase assessed as N-desalkylquetiapine sulfoxide formation after 60 mins by LC-MS analysis. The settings on record: recombinant enzyme, 1 h.
In series [8] the target is T1, Cytochrome P450 2D6. The experiment in a line: Activity of human CYP2D6 expressed in supersomes co-expressing cytochrome P450 reductase assessed as N-desalkylquetiapine sulfoxide formation after 60 mins by LC-MS analysis. The settings on record: recombinant enzyme, 1 h.
Series [9] has as its target T1, Cytochrome P450 2D6. The series is described as follows: Activity of human CYP2D6 expressed in supersomes co-expressing cytochrome P450 reductase assessed as 7-hydroxy-N-desalkylquetiapine formation after 60 mins by LC-MS analysis. As to conditions: recombinant enzyme, 1 h.
Series [10] addresses T2, Cytochrome P450 3A4. The experiment in a line: Activity of human CYP3A4 expressed in xenosomes assessed as intrinsic clearance per pmol protein by LC-MS analysis.
Series [11] relates to Liver microsome. The experiment in a line: Drug metabolism in human liver microsomes assessed as 7-hydroxy-N-desalkylquetiapine formation at 3 uM after 30 mins by mass spectroscopy in presence of CYP2D6 inhibitor quinidine. The settings on record: 0.5 h.
In series [12] the test system is Liver microsome. The series is described as follows: Drug metabolism in human liver microsomes assessed as N-desalkylquetiapine sulfoxide formation at 3 uM after 30 mins by mass spectroscopy in presence of CYP3A4 inhibitor ketoconazole. The settings on record: 0.5 h.
Series [13] relates to Liver microsome. The series is described as follows: Drug metabolism in human liver microsomes assessed as 7-hydroxy-N-desalkylquetiapine formation at 3 uM after 30 mins by mass spectroscopy in presence of CYP1A2 inhibitor fluvoxamine. As to conditions: 0.5 h.
Series [14] has as its system Liver microsome. The experiment in a line: Drug metabolism in human liver microsomes assessed as N-desalkylquetiapine sulfoxide formation at 3 uM after 30 mins by mass spectroscopy in presence of CYP2C19 inhibitor benzylnirvanol. As to conditions: 0.5 h.
Series [15] concerns Liver microsome. The series is described as follows: Drug metabolism in human liver microsomes assessed as N-desalkylquetiapine sulfoxide formation at 3 uM after 30 mins by mass spectroscopy in presence of CYP2C9 inhibitor sulfaphenazole. As to conditions: 0.5 h.
The test system of series [16] is Liver microsome. The series is described as follows: Drug metabolism in human liver microsomes assessed as 7-hydroxy-N-desalkylquetiapine formation at 3 uM after 30 mins by mass spectroscopy in presence of CYP2C19 inhibitor benzylnirvanol. The settings on record: 0.5 h.
For series [17], the system named is Liver microsome. The series is described as follows: Drug metabolism in human liver microsomes assessed as 7-hydroxy-N-desalkylquetiapine formation at 3 uM after 30 mins by mass spectroscopy in presence of CYP2C9 inhibitor sulfaphenazole. As to conditions: 0.5 h.
In series [18] the test system is Liver microsome. The experiment in a line: Drug metabolism in human liver microsomes assessed as N-desalkylquetiapine sulfoxide formation at 3 uM after 30 mins by mass spectroscopy. The settings on record: 0.5 h.
Series [19] can be described thus: Activity of cytochrome P450 in human liver microsomes assessed as N-desalkylquetiapine sulfoxide formation measured as high-affinity/low-capacity binding constant by LC-MS analysis.
Series [20] can be described thus: Activity of cytochrome P450 in human liver microsomes assessed as N-desalkylquetiapine sulfoxide formation measured as low-affinity/high-capacity binding constant by LC-MS analysis.
Series [21] deals with Liver microsome. The experiment in a line: Retention time in human liver microsomes after 30 to 60 mins by mass spectroscopy.
Series [22] deals with Liver microsome. The experiment in a line: Drug metabolism in human liver microsomes treated with N-desalkylquetiapine at 3 uM after 30 mins by mass spectroscopy. As to conditions: 0.5 h.
Series [23] relates to Liver microsome. The series is described as follows: Drug metabolism in human liver microsomes treated with N-desalkylquetiapine at 3 uM after 30 mins by mass spectroscopy in presence of CYP2D6 inhibitor quinidine. As to conditions: 0.5 h.
The subject of series [24] is Liver microsome. The series is described as follows: Drug metabolism in human liver microsomes treated with N-desalkylquetiapine at 3 uM after 30 mins by mass spectroscopy in presence of CYP3A4 inhibitor ketoconazole. As to conditions: 0.5 h.
In series [25] the test system is Liver microsome. The experiment in a line: Drug metabolism in human liver microsomes treated with N-desalkylquetiapine at 3 uM after 30 mins by mass spectroscopy in presence of CYP1A2 inhibitor fluvoxamine. As to conditions: 0.5 h.
Series [26] deals with Liver microsome. The series is described as follows: Drug metabolism in human liver microsomes treated with N-desalkylquetiapine at 3 uM after 30 mins by mass spectroscopy in presence of CYP2C19 inhibitor benzylnirvanol. As to conditions: 0.5 h.
The subject of series [27] is Liver microsome. The series is described as follows: Drug metabolism in human liver microsomes treated with N-desalkylquetiapine at 3 uM after 30 mins by mass spectroscopy in presence of CYP2C9 inhibitor sulfaphenazole. The settings on record: 0.5 h.

T2 sequence (P08684 whole entry): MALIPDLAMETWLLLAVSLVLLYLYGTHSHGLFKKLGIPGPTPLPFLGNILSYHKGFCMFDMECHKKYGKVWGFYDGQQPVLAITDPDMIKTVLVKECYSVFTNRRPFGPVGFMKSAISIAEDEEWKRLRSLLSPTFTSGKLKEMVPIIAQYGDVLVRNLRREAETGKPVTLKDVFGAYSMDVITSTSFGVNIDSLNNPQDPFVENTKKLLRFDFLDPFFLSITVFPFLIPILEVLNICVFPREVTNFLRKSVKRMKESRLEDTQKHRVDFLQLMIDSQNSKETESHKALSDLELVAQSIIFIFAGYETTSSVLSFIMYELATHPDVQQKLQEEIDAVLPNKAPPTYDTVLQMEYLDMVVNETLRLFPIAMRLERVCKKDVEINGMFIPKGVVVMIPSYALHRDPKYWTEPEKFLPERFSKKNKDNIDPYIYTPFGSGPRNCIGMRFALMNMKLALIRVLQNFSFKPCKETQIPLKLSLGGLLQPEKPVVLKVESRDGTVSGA
T1 sequence (P10635 whole entry): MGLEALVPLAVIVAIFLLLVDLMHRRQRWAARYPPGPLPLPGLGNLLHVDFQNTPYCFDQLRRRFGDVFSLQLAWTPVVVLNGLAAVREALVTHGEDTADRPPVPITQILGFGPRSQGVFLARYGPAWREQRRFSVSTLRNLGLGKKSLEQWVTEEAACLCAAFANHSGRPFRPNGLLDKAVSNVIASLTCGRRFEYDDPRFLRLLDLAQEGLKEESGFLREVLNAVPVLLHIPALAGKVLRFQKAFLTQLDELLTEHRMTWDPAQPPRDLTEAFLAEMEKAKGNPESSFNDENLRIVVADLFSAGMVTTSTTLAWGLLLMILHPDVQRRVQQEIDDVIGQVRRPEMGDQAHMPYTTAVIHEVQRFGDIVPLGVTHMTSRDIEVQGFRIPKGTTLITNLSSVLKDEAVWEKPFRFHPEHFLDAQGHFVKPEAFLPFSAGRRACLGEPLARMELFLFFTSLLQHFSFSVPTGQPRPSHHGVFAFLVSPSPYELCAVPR
Sequence of CYP3A4 (P08684 whole entry): as the sequence (P08684 whole entry) above
Sequence of CYP2D6 (P10635 whole entry): as the sequence (P10635 whole entry) above

As for `c1ccc2c(c1)N=C(N1CCNCC1)c1ccccc1S2`, the Km with cytochrome P450 stood at 110 µM; in series [2], 199 µM; in series [19], 15 µM; in series [20], 459 µM. In addition, the Kis in series [1] came out at 824 µM. Besides, the Drug metabolism entry on Cytochrome P450 2D6 [3], on Cytochrome P450 3A4 [4], with Liver microsome [6], on Cytochrome P450 3A4 [7], on Cytochrome P450 2D6 [8] and on Cytochrome P450 2D6 [9] was “metabolite_detected” throughout. In addition, the Drug metabolism entry in the series on Liver microsome [11] is on record as “metabolite_not_detected”; in the series with Liver microsome [12], “metabolite_not_detected”; with Liver microsome [13], “metabolite_detected”; with Liver microsome [14], “metabolite_detected”; in the series on Liver microsome [15], “metabolite_detected”; in the series with Liver microsome [16], “metabolite_detected”. Also, the Drug metabolism entry in the series with Liver microsome [17] and with Liver microsome [18] was “metabolite_detected” each time. Besides, the results for the CL at Cytochrome P450 2D6 [5] and at Cytochrome P450 3A4 [10] were 3 µL/min and 0.25 µL/min, respectively. Further, the metabolised at 1 h at CYP3A4 was found to be 6%; on CYP2D6, 47%.

In turn, `[O-][S+]1c2ccccc2N=C(N2CCNCC2)c2ccccc21` (configuration not stated) had a Retention_time with Liver microsome [21] of 3.98 min. For the same molecule, the Drug metabolism entry in the series on Liver microsome [22] is “metabolite_detected”; with Liver microsome [23] it was “metabolite_not_detected”; in the series with Liver microsome [24], “metabolite_not_detected”; with Liver microsome [25], “metabolite_detected”; with Liver microsome [26], “metabolite_detected”; in the series on Liver microsome [27], “metabolite_detected”.

The molecule `Oc1ccc2c(c1)Sc1ccccc1C(N1CCNCC1)=N2` returned a Retention_time in the series with Liver microsome [21] of 4.31 min. Also, the Drug metabolism result in the series with Liver microsome [22] is recorded as “metabolite_detected”; in the series with Liver microsome [23], “metabolite_not_detected”; in the series with Liver microsome [24] it was “metabolite_not_detected”; in the series on Liver microsome [25], “metabolite_detected”; with Liver microsome [26], “metabolite_detected”; with Liver microsome [27] it was “metabolite_detected”.
